The subject of one series is histone H3, H3K56. Kind of series: Post-translational modifications on histone proteins (mass spectrometry, SILAC). To be noted: U937 (and other) cells, 24 h, 5 μM. It is filed as cell-based, human. As for the experimental part:
U937 cells were grown in RPMI medium in the presence of lysine and arginine (‘light’) or istope versions, Arg10 and Lys8 (‘heavy’). […]. As controls, cell grown in heavy medium were treated for 24 h with DMSO. Light and heavy cells were 7.5×10^6 cells harvest and mixed in 1:1 ratio (total 15×10^6 cells). The cells were washed twice with PBS and the cell pellet was stored at −80° C.
Cells were resuspended in 750 μl Triton Extraction Buffer (TEB: PBS containing 0.5% Triton X 100 (v/v), 2 mM phenylmethylsulfonyl fluoride (PMSF) and 0.02% (w/v) NaN3) and lysed on ice for 10 min with gentle stirring. The lysate was centrifuged for 10 min at 6000 rpm and the supernatant discarded. The pellet was washed with 375 μl of TEB and peletted by centrifugation as before. Pellet is resuspended in 20 μl 250 mM HCl and acid extraction of the histones was performed o/n at 4° C.
Extracted histones were cleared by centrifugation and separated on a 15% acrylamide gel and the gel was stained with Coomassie. The gel region containing the histones was sliced, reduced and alkylated in gel. Proteins were digested o/n with trypsin (Promega). Peptides were eluted from the gel with trifluoroacetic acid. […]
U937 cells were treated with UVI5008 for 24 hrs and histones were acid extracted. Proteins were digested with trypsin and the peptides were analysed using a nanoLC that is online with a FT-ICR mass spectrometer. […]

Another series deals with DU-145 cells. Kind of series: MTT cytotoxicity assay, DU-145. Particulars: read-out: IC50 values, MTT cytotoxicity assay; DU-145, 48 h.
Series [1] deals with U937 acute myeloid leukemia cell line. Briefly: Cell cycle analysis in U937 cells. The format is cell-based, human. To be noted: U937, 30 hrs. As for the experimental part:
FIG. 1: a) Cell cycle analysis of U937 cells treated for 30 hrs with the indicated compounds used at 1 and 5 μM; b) Caspase 3 apoptotic assay of the indicated compounds after 24 hrs of treatment in the U937 cells; c) Tubulin acetylation and p21 expression levels at 6 and 16 hrs after treatment with the indicated compounds; total tubulin expression levels are used for equal loading; d) Histone H3 acetylation and K9 H3 methylation expression levels at 6 and 16 hrs after treatment with the indicated compounds; total tubulin expression levels are used for equal loading; e) K9, K14, K18 histone H3 acetylation expression levels at 6 and 16 hrs after treatment with the indicated compounds; total ERKs expression levels are used for equal loading; f) HDAC1 enzymatic assay: IP-HDAC1 is incubated with the indicated inhibitors for 24 Hrs; activity is measured as ^3H-acetyl release; g) HDAC4 enzymatic assay: IP-HDAC4 is incubated with the indicated inhibitors for 24 hrs; activity is measured as ^3H-acetyl release.
FIG. 3: a) Cell cycle and apoptosis analysis carried out in U937 cells after 24 hrs with the indicated compounds; values are media of independent triplicates; b) CD11c expression analysis carried out in U937 cells with the indicated compounds; values are media of independent duplicates; c) Tubuline acetylation and p21 expression levels in U937 cells after 24 hrs with the indicated treatments; total ERKs expression levels are used for equal loading; d) acetylation of histone H3 under the conditions indicated in (c).
Human leukemia cell line U937 was propagated in RPMI medium supplemented with 10% FBS (Foetal bovine serum; Hyclone) and antibiotics (100 U/mL penicillin, 100 μg/mL streptomycin and 250 ng/mL amphotericin-B). Cells were kept at the constant concentration of 200000 cells per milliliter of culture medium. For AML samples, bone marrow containing 80% to 90% leukemic blasts was purified over Ficoll. This study was approved by the Ethical Committee of the Second University of Naples.
MS-275 (Schering A G) was dissolved in ethanol and used at 5×10^−6M; valproic acid (VPA; Sigma) was used at 1 mM. All other compounds described were dissolved in DMSO (Sigma-Aldrich) and used at 1 or 5 μM.
2.5×10^5 cells were collected and resuspended in 500 μL of a hypotonic buffer (0.1% Triton X-100, 0.1% sodium citrate, 50 μg/mL propidium iodide, RNAse A). Cells were incubated in the dark for 30 min. Samples were acquired on a FACS-Calibur flow cytometer using the Cell Quest software (Becton Dickinson) and analysed with standard procedures using the Cell Quest software (Becton Dickinson) and the ModFit LT version 3 Software (Verity). All the experiments were performed 3 times.

Another series concerns p16INK4a. Kind of series: p16 expression levels in U937 cells. It is filed as cell-based, human. To be noted: U937, 24 hrs. Here is the method: FIG. 2: a) Methylation specific PCR for the RARβ gene after 16 and 24 hrs of treatment with the indicated compounds; b) Methylation specific PCR for the p16 gene after 24 hrs of the indicated treatments. Samples are representative of real duplicates; c) p16 expression levels in U937 cells after 24 hrs with the indicated treatments; d) DNMT enzymatic in vitro assay carried out with 1.5 and 50 μM of the indicated compounds;
For the determination of p21^WAF1/CIP1 and p16^INK4 100 μg of total protein extracts were separated on a 15% polyacrylammide gels and blotted. Western blots were shown for p21 (Transduction Laboratories, dilution 1:500), p16 (Santa Cruz) and total ERKs (Santa Cruz) were used to normalise for equal loading. For alpha-tubulin acetylation 25 μg of total protein extracts were separated on a 10% polyacrylamide gels and blotted. Western blots were shown for acetylated alpha-tubulin (Sigma, dilution 1:500) and total ERKs (Santa Cruz) or total tubulin (Sigma) were used to normalise for equal loading.

Structures are written as SMILES.

Protocol for DU-145 cells: Plates were kept in the humidified CO2 (5%) incubator overnight so that cells get attached to the bottom. […] Viable cells cleave the MTT tetrazolium ring into a dark blue formazan reaction product, whereas dead cells remain colorless. The MTT-containing medium was gently removed and DMSO was added in each well. After shaking, the plates were read in absorbance at 540 nm. All results are expressed as the average of three wells. Percent cytotoxicity was measured of each compound and represented in terms of its IC50 values.

A word on the IC50: it is the concentration needed to halve the response being measured. In the case of `O=C(NCCSSCCNC(=O)C(Cc1c[nH]c2ccc(Br)cc12)=NO)C(Cc1c[nH]c2ccc(Br)cc12)=NO` [UVI5008], the “post-translational modifications on histone proteins” value in the series on histone H3, H3K56 is “identification of a novel acetylated lysine residue in histone H3, H3K56”. In addition, the IC50 in the series on DU-145 cells is 2400 ± 300 nM. Further, the “cell cycle arrest, position of the block” value was “arrests cells in G2-M” in series [1] (1 μM); “arrests in the S and G2 phases” in series [1] (1 and 5 μM). In addition, in the series on p16INK4a, the p16INK4a gene expression entry is reported as “de-silenced”.

Values taken from patent US8338473B2, “Derivatives of psammaplin A, a method for their synthesis and their uses for the prevention or treatment of cancer” (Centre National de la Recherche Scientifique, priority 2007, dated 2012).
